Laboratory results taken from ChEMBL document CHEMBL5230155, “Recent contributions of quinolines to antimalarial and anticancer drug discovery research” (Eur J Med Chem, 2021).
One block for each molecule: values may come before it.

Assays:
Plasmodium falciparum [1] = test system: Plasmodium falciparum
Description: Antimalarial activity against CQ-sensitive Plasmodium falciparum NF54

RPMI-8226 [2] = experiment: Induction of apoptosis in human RPMI-8226 cells assessed as fold increase in cytochrome c level; assay type: functional
HCT-116 = experiment: Cytotoxicity against human HCT-116 cells; assay type: functional, cell-based
RPMI-8226 [3] = experiment: Cytotoxicity against human RPMI-8226 cells; assay type: functional, cell-based
RPMI-8226 [4] = experiment: Induction of apoptosis in human RPMI-8226 cells assessed as fold increase in caspase-3 level; assay type: functional
[5] = biological target: T1, Tyrosine-protein kinase receptor UFO (Homo sapiens, UniProt P30530); experiment: Inhibition of AXL (unknown origin)
T1 sequence (P30530 whole entry): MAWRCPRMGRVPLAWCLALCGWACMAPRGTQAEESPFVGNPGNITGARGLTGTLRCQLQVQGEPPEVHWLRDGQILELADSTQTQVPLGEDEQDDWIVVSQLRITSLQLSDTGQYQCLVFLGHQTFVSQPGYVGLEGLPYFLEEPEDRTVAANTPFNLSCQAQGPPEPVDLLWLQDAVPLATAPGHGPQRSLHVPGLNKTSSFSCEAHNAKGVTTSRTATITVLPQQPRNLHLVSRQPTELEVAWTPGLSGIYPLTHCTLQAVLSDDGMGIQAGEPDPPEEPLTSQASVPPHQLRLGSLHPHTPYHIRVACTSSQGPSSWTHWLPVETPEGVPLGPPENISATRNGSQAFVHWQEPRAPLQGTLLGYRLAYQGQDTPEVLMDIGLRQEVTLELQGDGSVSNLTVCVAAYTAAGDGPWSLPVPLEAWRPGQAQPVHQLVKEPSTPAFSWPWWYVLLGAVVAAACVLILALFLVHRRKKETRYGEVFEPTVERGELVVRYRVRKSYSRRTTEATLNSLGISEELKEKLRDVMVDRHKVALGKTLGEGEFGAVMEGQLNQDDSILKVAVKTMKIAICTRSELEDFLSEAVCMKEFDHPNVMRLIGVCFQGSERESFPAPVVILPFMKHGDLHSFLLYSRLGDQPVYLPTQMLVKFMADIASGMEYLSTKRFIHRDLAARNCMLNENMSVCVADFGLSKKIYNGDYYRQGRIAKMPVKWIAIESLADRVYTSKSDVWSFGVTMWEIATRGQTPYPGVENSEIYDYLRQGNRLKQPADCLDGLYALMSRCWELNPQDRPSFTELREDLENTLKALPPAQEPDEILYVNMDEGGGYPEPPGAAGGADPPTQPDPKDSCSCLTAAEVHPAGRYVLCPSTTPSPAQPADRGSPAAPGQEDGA

[6] = Inhibition of PI3K (unknown origin); set-up: species or system Homo sapiens
MCF7 = experiment: Antiproliferative activity against human MCF7 cells; assay type: functional, cell-based; details: Homo sapiens, MCF7
HeLa = experiment: Antiproliferative activity against human HeLa cells; assay type: functional, cell-based
DLD-1 = experiment: Antiproliferative activity against human DLD-1 cells; assay type: functional, cell-based
G-361 = experiment: Antiproliferative activity against human G-361 cells; assay type: functional, cell-based; details: read-out: IC50
[7] = Selectivity index, ratio of IC50 for African green monkey Vero cells to IC50 for CQ sensitive Plasmodium falciparum 3D7; assay type: toxicity; details: read-out: Ratio IC50
Plasmodium falciparum [8] = experiment: Antimalarial activity against CQ-sensitive Plasmodium falciparum 3D7; assay type: functional, organism-based
[9] = Cytotoxicity against african green monkey Vero cells; assay type: toxicity, cell-based; details: African green monkey (Chlorocebus sabaeus)
Plasmodium falciparum [10] = experiment: Antimalarial activity against CQ-resistant Plasmodium falciparum RKL-9; assay type: functional, organism-based
Hep 3B2 = experiment: Cytotoxicity against human Hep3B cells assessed as relative value at 15 uM after 48 hrs by MTS method; assay type: functional
HT-29 = experiment: Antiproliferative activity against human HT-29 cells; assay type: functional, cell-based
A-375 = experiment: Antiproliferative activity against human A-375 cells; assay type: functional, cell-based
NCI-H460 = experiment: Antiproliferative activity against human NCI-H460 cells; assay type: functional, cell-based
PANC-1 = experiment: Antiproliferative activity against human PANC-1 cells; assay type: functional, cell-based
[11] = biological target: Alkaline phosphatase, germ cell type (Homo sapiens, UniProt P10696); experiment: Inhibition of human germ cell alkaline phosphatase
Alkaline phosphatase, germ cell type, sequence (P10696 whole entry): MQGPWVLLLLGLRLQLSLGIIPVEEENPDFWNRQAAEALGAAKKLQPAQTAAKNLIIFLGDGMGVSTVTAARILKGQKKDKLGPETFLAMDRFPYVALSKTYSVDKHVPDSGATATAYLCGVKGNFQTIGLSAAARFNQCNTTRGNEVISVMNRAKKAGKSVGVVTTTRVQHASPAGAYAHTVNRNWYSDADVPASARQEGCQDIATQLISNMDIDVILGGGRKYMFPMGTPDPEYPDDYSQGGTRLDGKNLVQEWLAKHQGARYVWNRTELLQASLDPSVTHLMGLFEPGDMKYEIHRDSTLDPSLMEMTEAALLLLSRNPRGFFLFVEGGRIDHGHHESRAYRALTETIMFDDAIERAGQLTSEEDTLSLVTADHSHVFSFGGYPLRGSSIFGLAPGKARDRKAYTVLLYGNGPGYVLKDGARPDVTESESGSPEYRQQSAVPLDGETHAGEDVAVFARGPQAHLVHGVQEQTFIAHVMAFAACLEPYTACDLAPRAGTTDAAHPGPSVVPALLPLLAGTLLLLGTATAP

SNU-423 = experiment: Antiproliferative activity against human SNU-423 cells; assay type: functional, cell-based
MDA-MB-453 = experiment: Antiproliferative activity against human MDA-MB-453 cells; assay type: functional, cell-based
RT-112 = experiment: Antiproliferative activity against human RT-112 cells; assay type: functional, cell-based
Plasmodium falciparum [12] = experiment: Antimalarial activity against multidrug resistant Plasmodium falciparum Dd2; assay type: functional, organism-based
Plasmodium falciparum [13] = experiment: Antimalarial activity against multidrug resistant Plasmodium falciparum K1; assay type: functional, organism-based
Plasmodium falciparum [14] = experiment: Antimalarial activity against Plasmodium falciparum 3D7; assay type: functional, organism-based
Plasmodium falciparum [15] = experiment: Antimalarial activity against CQ-sensitive Plasmodium falciparum D6; assay type: functional, organism-based
Hemozoin = experiment: Inhibition of beta-hematin formation relative to control; details: concentration not given here

Structure (SMILES): Clc1ccc2c(N3CC(CN4CCOCC4)N=N3)ccnc2c1 (stereo not drawn) [listing 1 of 2 here]
- IC50 (Plasmodium falciparum [1]): 4560 nM

Structure (SMILES): Cc1ccc2nc(SCc3ccccc3)c(/C=[N+](\[O-])c3ccccc3)cc2c1
- fold change (FC) (RPMI-8226 [2]): 4
- IC50 (HCT-116): 450 nM
- IC50 (RPMI-8226 [3]): 450 nM
- fold change (FC) (RPMI-8226 [4]): 12

Structure (SMILES): [O-]/[N+](=C\c1cc2ccccc2nc1SCc1ccccc1)c1ccccc1
- fold change (FC) (RPMI-8226 [2]): 4
- IC50 (HCT-116): 450 nM
- IC50 (RPMI-8226 [3]): 450 nM
- fold change (FC) (RPMI-8226 [4]): 12

Structure (SMILES): O=C(Cn1cc(COc2ccc(Br)cc2)nn1)NCCCNc1ccnc2cc(Cl)ccc12
- selectivity ratio [7]: 714
- IC50 (Plasmodium falciparum [8]): 38.8 nM
- IC50 [9]: > 5000 nM
- IC50 (Plasmodium falciparum [10]): 16 nM

Structure (SMILES): Cc1ccc2cccc(OS(=O)(=O)c3ccc(CBr)cc3)c2n1
- fold change (FC) (Hep 3B2): 0.25

Structure (SMILES): COc1nc2ccc(C)cc2cc1Cc1cc(-c2ccccc2)n[nH]c1=O
- IC50 (HT-29): 2200 nM
- IC50 (A-375): 2200 nM
- IC50 (NCI-H460): 2200 nM
- IC50 (PANC-1): 2200 nM

Structure (SMILES): COc1cc2c(C(=O)Nc3nc4ccccc4s3)cc(O)nc2cc1Cl
- IC50 [11]: < 75 nM

Structure (SMILES): O=S(=O)(Oc1cccc2cccnc12)c1ccc(CBr)cc1
- fold change (FC) (Hep 3B2): 0.25

Structure (SMILES): Clc1ccc2c(N3CC(CN4CCOCC4)N=N3)ccnc2c1 (stereo not drawn) [listing 2 of 2 here]
- IC50 (Plasmodium falciparum [1]): 206 nM

Structure (SMILES): O=C(Cn1cc(COc2ccc(Cl)cc2)nn1)NCCNc1ccnc2cc(Cl)ccc12
- selectivity ratio [7]: 714
- IC50 (Plasmodium falciparum [8]): 38.8 nM
- IC50 [9]: > 5000 nM
- IC50 (Plasmodium falciparum [10]): 75 nM

Structure (SMILES): C#CCCCC(C(=O)NCCOC(=O)CCC(=O)O[C@@H]1O[C@@H]2O[C@@]3(C)CC[C@H]4[C@H](C)CCC([C@H]1C)[C@@]24OO3)c1ccnc2cc(Cl)ccc12 (stereo partly drawn)
- EC50 (Plasmodium falciparum [12]): 0.78 nM
- EC50 (Plasmodium falciparum [13]): 0.78 nM
- EC50 (Plasmodium falciparum [14]): 0.78 nM

Structure (SMILES): Clc1ccc2c(N3CCN(CCCN4CCN(c5ccnc6cc(Cl)ccc56)CC4)CC3)ccnc2c1 [PIPERAQUINE]
- IC50 (Plasmodium falciparum [15]): 0.7 nM
- IC50 (Plasmodium falciparum [12]): 1.5 nM

Structure (SMILES): C[C@@H]1CC[C@H]2[C@@H](C)C(=O)O[C@@H]3O[C@@]4(C)CC[C@@H]1[C@]32OO4 [ARTEMISININ]
- EC50 (Plasmodium falciparum [12]): 5.4 nM
- EC50 (Plasmodium falciparum [13]): 5.4 nM
- EC50 (Plasmodium falciparum [14]): 5.4 nM

Structure (SMILES): COC[C@H]1OC(=O)c2coc3c2[C@@]1(C)C1=C(C3=O)[C@@H]2CCC(=O)[C@@]2(C)C[C@H]1OC(C)=O [WORTMANNIN]
- IC50 [6]: 750 nM

More lines, main results first:

- IC50 (Plasmodium falciparum [1]): 4560 nM
Structure (SMILES): Clc1ccc2c(N3CC(CN4CCCCC4)N=N3)ccnc2c1 (stereo not drawn) [listing 1 of 2 here]

- IC50 [5]: 27 nM
Structure (SMILES): COc1cc2c(Oc3ccc(NS(=O)(=O)c4ccccc4OC(F)(F)F)cc3F)ccnc2cc1OCCCN1CCN(C)CC1

- IC50 [6]: 450 nM
Structure (SMILES): CC(=O)c1ccc(C#Cc2c(C3CC3)nc3ccccc3c2-c2ccc(F)cc2)cc1

- IC50 (MCF7): 38 nM
- IC50 (HeLa): 38 nM
- IC50 (DLD-1): 38 nM
Structure (SMILES): CNC(=O)c1sc(N2N=C(c3ccc(C)cc3)CC2c2cc3cc(OC)ccc3nc2Cl)nc1C (stereo not drawn)

- IC50 [5]: 21 nM
Structure (SMILES): COc1cc2c(Oc3ccc(NS(=O)(=O)c4cc(F)ccc4F)cc3F)ccnc2cc1OCCCN1CCCC(C)C1 (stereo not drawn)

- IC50 (MCF7): 2070 nM
Structure (SMILES): COc1ccc2ccc(F)c(CC(=O)N/N=C/c3cc(OC)c(OC)c(OC)c3)c2n1
- IC50 (G-361): 2070 nM

- IC50 (SNU-423): 700 nM
- IC50 (MDA-MB-453): 700 nM
Structure (SMILES): COc1cc(N(CCCSC(=S)N2CCN(C)CC2)S(=O)(=O)c2cccc3cccnc23)cc(OC)c1OC
- IC50 (RT-112): 700 nM

- IC50 (Plasmodium falciparum [1]): 206 nM
Structure (SMILES): Clc1ccc2c(N3CC(CN4CCCCC4)N=N3)ccnc2c1 (stereo not drawn) [listing 2 of 2 here]

- IC50 [5]: 27 nM
Structure (SMILES): COc1cc2c(Oc3ccc(NS(=O)(=O)c4c(F)cccc4F)cc3F)ccnc2cc1OCCCN1CCN(C)CC1

- IC50 [6]: 450 nM
Structure (SMILES): O=C(O)c1cc(C#Cc2c(C3CC3)nc3ccccc3c2-c2ccc(F)cc2)ccc1Br

- IC50 (MCF7): 38 nM
- IC50 (HeLa): 38 nM
- IC50 (DLD-1): 38 nM
Structure (SMILES): COc1ccc2nc(Cl)c(C3CC(c4ccc(C)cc4)=NN3c3nc(-c4ccc(Cl)cc4)cs3)cc2c1 (stereo not drawn)

- inhibition (Hemozoin): 61.3%
Structure (SMILES): COc1ccc2nc(Cl)c(/C=C/C(=O)c3ccc(OC)c(OC)c3OC)cc2c1
